Measurements from PMC4772718 (Bioconjugate chemistry, 2015).

Target: Bruton's tyrosine kinase (Btk) (Homo sapiens, UniProt Q06187)
Experiment: IC50
Type: biochemical

Bruton's tyrosine kinase (Btk), sequence (Q06187 2-659): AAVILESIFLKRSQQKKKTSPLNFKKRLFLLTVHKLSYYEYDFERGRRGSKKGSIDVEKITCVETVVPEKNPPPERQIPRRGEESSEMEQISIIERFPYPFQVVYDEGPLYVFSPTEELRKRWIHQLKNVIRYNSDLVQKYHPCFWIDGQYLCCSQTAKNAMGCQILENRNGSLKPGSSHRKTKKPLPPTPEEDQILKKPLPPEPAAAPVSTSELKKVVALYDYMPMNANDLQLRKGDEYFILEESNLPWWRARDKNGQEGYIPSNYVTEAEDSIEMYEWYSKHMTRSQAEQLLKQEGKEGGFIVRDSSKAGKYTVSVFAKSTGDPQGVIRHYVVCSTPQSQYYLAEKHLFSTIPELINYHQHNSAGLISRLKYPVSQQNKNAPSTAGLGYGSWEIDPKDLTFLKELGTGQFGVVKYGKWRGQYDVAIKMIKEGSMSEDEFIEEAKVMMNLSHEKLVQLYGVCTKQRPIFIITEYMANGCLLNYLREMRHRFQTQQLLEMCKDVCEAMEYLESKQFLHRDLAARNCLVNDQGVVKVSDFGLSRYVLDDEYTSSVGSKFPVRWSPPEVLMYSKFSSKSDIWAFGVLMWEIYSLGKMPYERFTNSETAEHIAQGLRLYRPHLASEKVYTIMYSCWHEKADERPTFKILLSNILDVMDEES

Q: Which IC50 does the source give for AVL-292-SiR-COOH here?
A: 284 nM
